Series [1] deals with splenocytes pulsed with ZIKV-derived peptides (target cells). The format is in vivo, mouse. The conditions noted are these: LysMCre+IFNARfl/fl mice infected with MR766 or FSS13025, day 7; targets pulsed with the three peptides; 12 h. As to the method: LysMCre^+IFNAR^fl/fl and WT mice were infected with 10^4 FFU of MR766 or FSS13025. Seven days post-infection, splenocytes were harvested from naïve donor mice, followed by stimulation with a pool of H-2b-restricted ZIKV-peptides (PrM169-177(SEQ ID NO: 19), E297-305 (SEQ ID NO: 25), N552783-2792 (SEQ ID NO: 20)) referred to as “Target Cells” or with DMSO for 3 h at 37° C. The cells were washed and labeled with CSFE (Invitrogen) in PBS/0.1% BSA for 10 min at 37° C. Target cells were labeled with 1 μM CSFE (High) or 100 nM CSFE (Low) for unstimulated cells. After washing, 10^7 of labeled cells (5×10^6 of each population) were injected intravenously into MOCK and infected recipients. Splenocytes from recipients were harvested 4 (Wild type) or 12 h later (LysMCre^+IFNAR^fl/fl) and analyzed by flow cytometry. The percentage of killing is calculated as followed: 100−(% ZIKV-peptide stimulated in infected mice/% DMSO-stimulated in infected mice)/(% ZIKV-peptide stimulated in naïve mice/% DMSO-stimulated in naïve mice)×100).
The following results are with respect to FIG. 7A to FIG. 7E, where WT C57BL/6 mice treated with type I IFN receptor-blocking antibody on day 1 prior to infection were inoculated with 10^4 FFU of ZIKV strain MR766 (n=3) or FSS (n=3), or injected with 10% FBS/PBS (MOCK, n=2). […] Four independent experiments for MR766 (n=8 mice per experiment) and two independent experiments for FSS13025 (n=8 mice per experiment) were performed in triplicate for each peptide. The data are expressed as the mean of spot forming cells (SFC) per 10^6 CD8^+ T cells. One-way ANOVA was used to compare the mean of each peptide with the control (DMSO). […] Pooled data from two independent experiments are shown. The dotted line corresponds to the average value obtained by MOCK after stimulation (0.43% of IFNγ^+CD8^+ T cells). Splenocytes were harvested on day 7 post-infection, followed by stimulation with 1 μg of IFNγ-ELISPOT-positive ZIKV-derived peptides in presence of Brefeldin A (BFA) and CD107a for 4 hours, and the production of IFNγ and TNFα was assessed via ICS. […]

The test system of series [2] is CD8+ T cells. Briefly: Intracellular cytokine staining (ICS), WT C57BL/6 mice treated with IFNAR-blocking antibody. The class given is cell-based, mouse. The conditions noted are these: splenocytes day 7 after MR766 or FSS13025; four peptides shared by both strains, NS31866-1874 MR766 only. As for the experimental part:
(§1) For intracellular cytokine staining (ICS), splenocytes were counted after red blood cell lysis and resuspended in 10% FBS/RPMI medium at 40×10^6 cells per ml. Splenocytes (2×10^6) were plated and stimulated with 1 μg of individual peptide as previously detailed (Elong Ngono et al., 2016). Positive (PMA-Ionomycin) and negative (No stimulation) controls were added for all experiments. Cells were labeled with anti-CD3 (Clone 145-2C11), anti-CD8 (clone 53-67), anti-CD44 (clone IM7), and anti-CD62L (clone Mel-14). Cells then were fixed and permeabilized, followed by staining with anti-granzyme B (clone NGZB), anti-IFNγ (clone XMG 1.2) and anti-TNFα(clone MP6-XT22). Samples were read on an LSR II (BD Biosciences) and were analyzed using FLOWJO™ software X 10.0.7 (Tree Star, Ashland, Oreg.).
The following results are with respect to FIG. 7A to FIG. 7E, where WT C57BL/6 mice treated with type I IFN receptor-blocking antibody on day 1 prior to infection were inoculated with 10^4 FFU of ZIKV strain MR766 (n=3) or FSS (n=3), or injected with 10% FBS/PBS (MOCK, n=2). […] The data are expressed as the mean of spot forming cells (SFC) per 10^6 CD8^+ T cells. […] Splenocytes were harvested on day 7 post-infection, followed by stimulation with 1 μg of IFNγ-ELISPOT-positive ZIKV-derived peptides in presence of Brefeldin A (BFA) and CD107a for 4 hours, and the production of IFNγ and TNFα was assessed via ICS. […]

Series [3] deals with CD8+ T cells. Briefly: ICS, LysMCre+IFNARfl/fl mice. The format is cell-based, mouse. The settings on record: LysMCre+IFNARfl/fl mice infected with MR766 or FSS13025. As for the experimental part: as §1
The following results are with reference to FIG. 3A and FIG. 3B, where five-week-old LysMCre^+IFNAR^fl/fl were infected retro-orbitally with 10^4 FFU of ZIKV MR766 or FSS13025. […] A total of 244 peptides from ZIKV strains predicted to bind H-2Kb and H-2db with high affinity were screened. Two independent experiments for each ZIKV strain (n=5 mice for each experiment) were performed in triplicate per peptide. The data are expressed as the mean of spot forming cells (SFC) per 10^6 CD8^+ T cells, and error bars are represented as SEM. […]

Series [4] concerns CD8+ T cells. The conditions noted are these: H-2b restricted; cited from earlier work.

Ends that are not written are not given here.

Take ATMSYECPM [SEQ ID NO 19]: the “in vivo cytotoxicity against peptide-pulsed splenocytes” value (“in vivo cytotoxicity” for short) in series [1] is on record as “high percentage of cytotoxicity”.
As for CAEAPNMKVI [SEQ ID NO 20], in series [1], the “in vivo cytotoxicity” value is on record as “high percentage of cytotoxicity”.
For IGVSNRDFV [SEQ ID NO 21], the “frequency of IFNγ-producing CD8+ T cells (ICS)” value with CD8+ T cells [2] is “induced a high frequency of IFNγ-expressing cells”. For the same sequence, the “immunodominance of epitopes (IFNγ+TNFα+ and CD107a+IFNγ+ ICS)” value in the series with CD8+ T cells [3] is listed as “immunodominant epitopes”. For the same sequence, the “cross-reactivity with CD8+ T cells induced in DENV2-infected mice” value in the series on CD8+ T cells [4] was “cross-reactive”.
Turning to PSVRNGNEI [SEQ ID NO 5], in the series with CD8+ T cells [2], the “frequency of IFNγ-producing CD8+ T cells (ICS)” value is “induced a high frequency of IFNγ-expressing cells”. Besides, the “cross-reactivity with CD8+ T cells induced in DENV2-infected mice” value in the series on CD8+ T cells [4] was “cross-reactive”.
On to SNRDFVEGM [SEQ ID NO 25], for which the “in vivo cytotoxicity” value in series [1] is “high percentage of cytotoxicity”.
